The values that follow come from patent US12077503B2, “Substituted cyclic amides and their use as herbicides” (FMC CORPORATION, priority 2015, dated 2024).

Structures are written as SMILES. Like-named read-outs stand apart in the source and are kept apart here.

Type in all cases: in vivo
Experiment [1] deals with Kochia (Kochia scoparia). Nature of the experiment: Test A preemergence. To be noted: Bassia scoparia, pre-emergence, 240 h; for pest or weed control at 125 g/ha: 125 g ai/ha, 0 to 100 scale where 0 is no effect and 100 is complete control; for pest or weed control at 500 g/ha: 500 g ai/ha. The method, boiled down:
(§1)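 Each rating is a visual injury score from 0 to 100 given about 10 d after treatment, judged against untreated controls kept alongside in the greenhouse. In loam soil–sand blend, seeds got a preemergence directed soil spray, while postemergence plants were 2 to 10 cm tall at spraying.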

Experiment [2] concerns barnyardgrass (Echinochloa crus-galli). Nature of the experiment: Test A preemergence. To be noted: Echinochloa crus-galli, pre-emergence, 240 h; for pest or weed control at 125 g/ha: 125 g ai/ha, 0 to 100 scale where 0 is no effect and 100 is complete control; for pest or weed control at 500 g/ha: 500 g ai/ha. The procedure, abridged: as §1
For experiment [3], the system named is giant foxtail (Setaria faberii). Nature of the experiment: Test A preemergence. To be noted: Setaria faberi, pre-emergence, 240 h; for pest or weed control at 125 g/ha: 125 g ai/ha, 0 to 100 scale where 0 is no effect and 100 is complete control; for pest or weed control at 500 g/ha: 500 g ai/ha. The method, boiled down:
as §1

In experiment [4] the test system is pigweed (Amaranthus retroflexus). Nature of the experiment: Test A preemergence. The conditions noted are these: Amaranthus retroflexus, pre-emergence, 240 h; for pest or weed control at 125 g/ha: 125 g ai/ha, 0 to 100 scale where 0 is no effect and 100 is complete control; for pest or weed control at 500 g/ha: 500 g ai/ha.
The subject of experiment [5] is ragweed (common ragweed, Ambrosia elatior). Nature of the experiment: Test A preemergence. To be noted: Ambrosia artemisiifolia, pre-emergence, 240 h; for pest or weed control at 125 g/ha: 125 g ai/ha, 0 to 100 scale where 0 is no effect and 100 is complete control; for pest or weed control at 500 g/ha: 500 g ai/ha. The procedure, abridged: as §1
In experiment [6] the test system is ryegrass, Italian (Italian ryegrass, Lolium multiflorum). Nature of the experiment: Test A preemergence. To be noted: Lolium multiflorum, pre-emergence, 240 h; for pest or weed control at 125 g/ha: 125 g ai/ha, 0 to 100 scale where 0 is no effect and 100 is complete control; for pest or weed control at 500 g/ha: 500 g ai/ha. The method, boiled down:
as §1

In experiment [7] the test system is Galium (catchweed bedstraw, Galium aparine). Put plainly: Test A postemergence. To be noted: Galium, post-emergence, 240 h, 125 g ai/ha, visual injury after approximately 10 d, read-out: Plant response rating, Galium. The procedure, abridged:
as §1

The subject of experiment [8] is Kochia (Kochia scoparia). Put plainly: Test A postemergence. The conditions noted are these: Bassia scoparia, post-emergence, 240 h, 125 g ai/ha, visual injury after approximately 10 d, read-out: Plant response rating, Kochia. The method, boiled down: as §1
The subject of experiment [9] is barnyardgrass (Echinochloa crus-galli). Nature of the experiment: Test A postemergence. To be noted: Echinochloa crus-galli, post-emergence, 240 h, 125 g ai/ha, visual injury after approximately 10 d, read-out: Plant response rating, Barnyardgrass. The method, boiled down:
as §1

For experiment [10], the system named is blackgrass (Alopecurus myosuroides). Nature of the experiment: Test A postemergence. To be noted: Alopecurus myosuroides, post-emergence, 240 h, 125 g ai/ha, visual injury after approximately 10 d, read-out: Plant response rating, Blackgrass. The method, boiled down:
as §1

A further experiment relates to corn (Zea mays). Nature of the experiment: Test A postemergence. The conditions noted are these: Zea mays, post-emergence, 240 h, 125 g ai/ha, visual injury after approximately 10 d. The procedure, abridged: as §1
Experiment [11] relates to giant foxtail (Setaria faberii). Put plainly: Test A postemergence. The conditions noted are these: Setaria faberi, post-emergence, 240 h, 125 g ai/ha, visual injury after approximately 10 d, read-out: Plant response rating, Foxtail, Giant. The procedure, abridged: as §1
Experiment [12] concerns pigweed (Amaranthus retroflexus). Put plainly: Test A postemergence. To be noted: Amaranthus retroflexus, post-emergence, 240 h, 125 g ai/ha, visual injury after approximately 10 d, read-out: Plant response rating, Pigweed. The method, boiled down:
as §1

Experiment [13] concerns ragweed (common ragweed, Ambrosia elatior). Put plainly: Test A postemergence. The conditions noted are these: Ambrosia artemisiifolia, post-emergence, 240 h, 125 g ai/ha, visual injury after approximately 10 d, read-out: Plant response rating, Ragweed. The procedure, abridged: as §1
For experiment [14], the system named is ryegrass, Italian (Italian ryegrass, Lolium multiflorum). Put plainly: Test A postemergence. The conditions noted are these: Lolium multiflorum, post-emergence, 240 h, 125 g ai/ha, visual injury after approximately 10 d, read-out: Plant response rating, Ryegrass, Italian. The procedure, abridged:
as §1

The subject of experiment [15] is wheat (Triticum aestivum). Put plainly: Test A postemergence. To be noted: Triticum aestivum, post-emergence, 240 h, 125 g ai/ha, visual injury after approximately 10 d, read-out: Plant response rating, Wheat. The procedure, abridged: as §1
[16] abbreviates: postemergence, 0 to 100 scale (0 no effect, 100 complete control).
Where [17] appears, read: Postemergence, 0 to 100 scale where 0 is no effect and 100 is complete control.

On to `O=C1NC[C@H](c2ccc3c(c2)OCO3)[C@H]1C(=O)Nc1cccc(F)c1F` [Compound 731], for which the pest or weed control at 125 g/ha in the experiment on Kochia (Kochia scoparia) [1] (preemergence, visual rating after approx. 10 d, read-out: Plant response rating, Kochia) turned out to be 0%; in experiment [2] (preemergence, visual rating after approx. 10 d, read-out: Plant response rating, Barnyardgrass), 80%; in experiment [3] (preemergence, visual rating after approx. 10 d, read-out: Plant response rating, Foxtail, Giant), 40%; in experiment [4] (preemergence, visual rating after approx. 10 d, read-out: Plant response rating, Pigweed) it was 0%; in experiment [5] (preemergence, visual rating after approx. 10 d, read-out: Plant response rating, Ragweed), 0%; in experiment [6] (preemergence, visual rating after approx. 10 d, read-out: Plant response rating, Ryegrass, Italian), 20%. Besides, the pest or weed control at 125 g/ha in [7] (setting [16]) came to 20%; in the experiment with Kochia (Kochia scoparia) [8] (setting [16]), 0%; in [9] (setting [16]), 70%; in experiment [10] (setting [16]), 0%; in experiment [11] (setting [16]) it was 50%; in experiment [12] (setting [16]), 0%. The pest or weed control at 125 g/ha in experiment [13] (setting [16]) and in experiment [14] (setting [16]) was 0% in each case. Also, the pest or weed control at 500 g/ha in the experiment with Kochia (Kochia scoparia) [1] (preemergence, 0 to 100 scale, 0 = no effect, 100 = complete control, read-out: Plant response rating, Kochia) was found to be 60%; in [2] (preemergence, 0 to 100 scale, 0 = no effect, 100 = complete control, read-out: Plant response rating, Barnyardgrass), 90%; in experiment [3] (preemergence, 0 to 100 scale, 0 = no effect, 100 = complete control, read-out: Plant response rating, Foxtail, Giant), 90%; in [4] (preemergence, 0 to 100 scale, 0 = no effect, 100 = complete control, read-out: Plant response rating, Pigweed) it was 0%; in [5] (preemergence, 0 to 100 scale, 0 = no effect, 100 = complete control, read-out: Plant response rating, Ragweed) it was 70%; in experiment [6] (preemergence, 0 to 100 scale, 0 = no effect, 100 = complete control, read-out: Plant response rating, Ryegrass, Italian), 40%. In addition, in the experiment with corn (Zea mays) (setting [16]), the Corn plant response rating (crop injury, 0 = no effect, 100 = complete kill) at 125 g/ha amounted to 0%. In experiment [15] (setting [16]), the plant injury at 125 g/ha amounted to 0%.
For the compound `COc1c(F)ccc([C@H]2CNC(=O)[C@@H]2C(=O)Nc2ccccc2S(C)(=O)=O)c1Cl` [Compound 916], the pest or weed control at 125 g/ha was found to be 40% with Kochia (Kochia scoparia) [1] (preemergence, read-out: Kochia plant response rating); 30% in experiment [2] (preemergence, read-out: Barnyardgrass plant response rating); 70% in experiment [3] (preemergence, read-out: Foxtail, Giant plant response rating); 0% in experiment [4] (preemergence, read-out: Pigweed plant response rating); 0% in experiment [5] (preemergence, read-out: Ragweed plant response rating); 0% in experiment [6] (preemergence, read-out: Ryegrass, Italian plant response rating). For the same compound, the pest or weed control at 125 g/ha came out at 30% in experiment [7] (setting [17]); 0% in the experiment on Kochia (Kochia scoparia) [8] (setting [17]); 30% in [9] (setting [17]); 0% in experiment [10] (setting [17]); 0% in [11] (setting [17]); 0% in [12] (setting [17]). Also, the pest or weed control at 125 g/ha in [13] (setting [17]) and in experiment [14] (setting [17]) was 0% each time. The pest or weed control at 500 g/ha in the experiment with Kochia (Kochia scoparia) [1] (Preemergence, visual injury vs untreated controls after approximately 10 d, read-out: Kochia plant response rating (0 to 100 scale where 0 is no effect and 100 is complete control)) came out at 60%; in [2] (Preemergence, visual injury vs untreated controls after approximately 10 d, read-out: Barnyardgrass plant response rating (0 to 100 scale where 0 is no effect and 100 is complete control)) it was 80%; in experiment [3] (Preemergence, visual injury vs untreated controls after approximately 10 d, read-out: Foxtail, Giant plant response rating (0 to 100 scale where 0 is no effect and 100 is complete control)) it was 80%; in [4] (Preemergence, visual injury vs untreated controls after approximately 10 d, read-out: Pigweed plant response rating (0 to 100 scale where 0 is no effect and 100 is complete control)), 20%; in experiment [5] (Preemergence, visual injury vs untreated controls after approximately 10 d, read-out: Ragweed plant response rating (0 to 100 scale where 0 is no effect and 100 is complete control)), 70%; in experiment [6] (Preemergence, visual injury vs untreated controls after approximately 10 d, read-out: Ryegrass, Italian plant response rating (0 to 100 scale where 0 is no effect and 100 is complete control)), 30%. This compound also displayed a Corn plant response rating (crop injury, 0 = no effect, 100 = complete kill) at 125 g/ha in the experiment with corn (Zea mays) (setting [17]) of 0%. Also, in experiment [15] (setting [17]), the plant injury at 125 g/ha came to 0%.
